Reference: patent US6410792B1, “Amide derivatives and methods for using the same as selective neuropeptide Y receptor antagonists” (Bayer Corporation, priority 1997, dated 2002)
Where a name gives a salt, the structure may show the parent alone. Read-outs that look alike come from different tables or passages of the source.

Columns and labels:
[1] = biological target: T1, Human NPY5 receptor (Homo sapiens, UniProt Q15761); assay: Human NPY5 receptor binding assay ([125I]PYY, membrane protein)
T1 sequence (Q15761 1-445): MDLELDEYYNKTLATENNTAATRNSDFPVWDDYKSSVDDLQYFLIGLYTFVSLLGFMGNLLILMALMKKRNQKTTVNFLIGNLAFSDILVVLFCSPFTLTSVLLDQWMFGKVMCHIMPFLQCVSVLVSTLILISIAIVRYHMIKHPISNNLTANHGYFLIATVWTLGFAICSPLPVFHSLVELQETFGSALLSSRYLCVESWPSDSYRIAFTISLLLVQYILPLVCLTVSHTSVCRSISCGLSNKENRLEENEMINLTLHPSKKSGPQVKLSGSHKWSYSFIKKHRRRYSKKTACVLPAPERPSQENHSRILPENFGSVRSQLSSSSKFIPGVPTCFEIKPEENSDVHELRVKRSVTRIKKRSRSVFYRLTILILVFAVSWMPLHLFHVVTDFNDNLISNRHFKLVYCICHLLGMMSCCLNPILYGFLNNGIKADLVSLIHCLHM
Summary of the method: (§1)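 Filter binding with membrane protein and porcine [125I]PYY at 75-100 pM, 2 h at room temperature; nonspecific binding set by 1 μM PYY.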

[2] = biological target: T2, Rat NPY5 receptor (Rattus norvegicus, UniProt Q63634); assay: Rat NPY5 receptor binding assay ([125I]PYY, membrane protein)
T2 sequence (Q63634 1-445): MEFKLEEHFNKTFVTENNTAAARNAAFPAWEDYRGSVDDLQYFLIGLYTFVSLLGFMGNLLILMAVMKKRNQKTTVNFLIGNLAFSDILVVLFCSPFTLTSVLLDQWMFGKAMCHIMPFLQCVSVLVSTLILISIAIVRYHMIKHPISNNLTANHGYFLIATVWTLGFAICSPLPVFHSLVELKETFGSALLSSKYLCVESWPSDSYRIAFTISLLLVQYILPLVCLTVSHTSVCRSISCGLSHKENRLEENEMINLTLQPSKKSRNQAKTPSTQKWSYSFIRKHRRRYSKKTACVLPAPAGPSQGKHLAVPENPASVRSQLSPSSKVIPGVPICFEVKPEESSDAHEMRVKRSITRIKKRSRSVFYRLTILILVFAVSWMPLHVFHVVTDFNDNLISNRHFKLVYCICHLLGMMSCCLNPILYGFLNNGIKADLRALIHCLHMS
Summary of the method: as §1

[3] = biological target: T2, Rat NPY5 receptor; assay: Rat NPY5 cyclase assay (in vitro functional assay, forskolin-stimulated adenylate cyclase, cAMP); type: cell-based; conditions: 20 min; 10 μM; percentage of forskolin-stimulated adenylate cyclase; read-out: rNPY5 % FSAC (10 μM)
Procedure: D. Rat NYP5 Cyclase Assay (In Vitro Functional Assay)
Cells stably expressing the rat NPY5 receptor are resuspended in serum-free DMEM containing 10 mM HEPES (pH 7.4) and 1 mM isobutylmethylxanthine (IBMX). […] forskolin and drug dilution are then added to the cells. After a 20 minute incubation of the samples at 37° C, the assay is stopped by placing the samples in boiling water for 3 minutes. The cAMP produced in each sample is quantitated with a radioimmunoassay kit (NEN DuPont). Data are expressed as a percentage of forskolin-stimulated adenylate cyclase.

[4] = biological target: T3, Human NPY1 receptor (Homo sapiens, UniProt P25929); assay: Human NPY1 receptor binding assay ([125I]PYY, SK-N-MC cells); conditions: [125I]PYY, SK-N-MC cells; read-out: hNPYI IC50
T3 construct: host or cells: SK-N-MC cells
T3 sequence (P25929 1-384): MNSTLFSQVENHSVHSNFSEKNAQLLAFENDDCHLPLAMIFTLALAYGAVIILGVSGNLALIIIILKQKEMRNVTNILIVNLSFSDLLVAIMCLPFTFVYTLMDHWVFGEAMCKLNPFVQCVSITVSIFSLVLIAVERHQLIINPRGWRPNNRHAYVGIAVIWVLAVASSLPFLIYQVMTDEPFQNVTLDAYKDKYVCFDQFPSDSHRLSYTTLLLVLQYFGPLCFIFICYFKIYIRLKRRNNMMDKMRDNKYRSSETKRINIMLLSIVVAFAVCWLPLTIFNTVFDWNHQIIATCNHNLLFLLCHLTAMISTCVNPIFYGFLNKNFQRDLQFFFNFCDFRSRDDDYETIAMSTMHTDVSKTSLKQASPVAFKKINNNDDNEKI
Summary of the method: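 Whole-cell competition with ~50 pM [125I]PYY on SK-N-MC monolayers, 3 h at room temperature after 30 min preincubation in HEPES-buffered (pH 7.3) serum-free DMEM containing protease inhibitors. Gamma counting of cell lysates; 1 μM NPY gave nonspecific binding.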

[5] = biological target: human Y4/PP1 receptor (Homo sapiens, UniProt P50391); assay: Human Y4/PP1 receptor binding assay ([125I]human PP, membrane protein); conditions: [125I]human PP, membrane protein; read-out: hNPY4 IC50
human Y4/PP1 receptor, sequence (P50391 whole entry): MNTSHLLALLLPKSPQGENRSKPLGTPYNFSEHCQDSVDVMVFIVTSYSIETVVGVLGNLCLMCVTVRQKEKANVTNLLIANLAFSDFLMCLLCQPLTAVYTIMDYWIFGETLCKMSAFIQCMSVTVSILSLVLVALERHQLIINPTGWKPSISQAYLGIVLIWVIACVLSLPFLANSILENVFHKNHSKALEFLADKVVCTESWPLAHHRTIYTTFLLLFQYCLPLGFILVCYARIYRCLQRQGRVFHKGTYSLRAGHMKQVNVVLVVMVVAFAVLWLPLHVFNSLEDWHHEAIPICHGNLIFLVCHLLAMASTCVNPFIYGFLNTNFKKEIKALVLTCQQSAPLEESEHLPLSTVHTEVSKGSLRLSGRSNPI
Summary of the method: (§2)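 Filtration binding with membrane protein and drug dilution, 2 h at room temperature with mixing, radioactivity counted by gamma or scintillation. Y2: 25 pM [125I]PYY in Krebs-Ringer bicarbonate pH 7.4 with 0.01% BSA, nonspecific by 1 μM NPY. Y4/PP1: 50 pM [125I]hPP in HEPES-buffered saline pH 7.4 with protease inhibitors and 0.3% BSA, nonspecific by 1 μM hPP.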

[6] = biological target: T4, Y2 receptor (Homo sapiens, UniProt P49146); assay: Y2 receptor binding assay ([125I]PYY, membrane protein); conditions: [125I]PYY, membrane protein; read-out: hNPY2 IC50
T4 sequence (P49146 1-381): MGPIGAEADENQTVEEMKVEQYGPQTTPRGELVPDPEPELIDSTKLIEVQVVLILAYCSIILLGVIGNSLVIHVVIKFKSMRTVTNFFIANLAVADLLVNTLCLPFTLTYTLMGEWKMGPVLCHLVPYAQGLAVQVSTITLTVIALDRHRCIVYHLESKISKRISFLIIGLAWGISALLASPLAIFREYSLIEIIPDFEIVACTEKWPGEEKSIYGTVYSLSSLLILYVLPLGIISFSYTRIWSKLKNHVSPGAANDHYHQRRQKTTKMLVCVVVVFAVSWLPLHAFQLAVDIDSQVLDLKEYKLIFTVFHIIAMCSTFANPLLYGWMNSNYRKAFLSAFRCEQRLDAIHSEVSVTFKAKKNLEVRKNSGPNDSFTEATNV
Summary of the method: as §2

[7] = [125I]PYY, read-out: hNPY5 IC50
[8] = [125I]PYY, read-out: rNPY5 IC50

Structure (SMILES) | IC50 [1, 7] | IC50 [2, 8] | activity at 10 µM [3] | IC50 [4] | IC50 [5] | IC50 [6] | IC50 ([1]; hNPY5 IC50, [125I]PYY) | IC50 ([2]; rNPY5 IC50, [125I]PYY)
CCCOC1(c2ccccc2)CCN(CC(=O)Nc2ccc(C3CCCCC3)cc2)CC1 [Compound 294, N-(4-Cyclohexyl-phenyl)-2-(4-phenyl-4-propoxy-piperidin-1-yl)-acetamide; hydrochloride] |  |  | 101% | > 5 µM | > 5 µM | > 5 µM | 0.051 µM | 0.05 µM
O=C(CN1CCC(O)(Cc2ccccc2)CC1)Nc1ccc(C2CCCCC2)cc1 [Compound 314, 2-(4-Benzyl-4-hydroxy-piperidin-1-yl)-N-(4-cyclohexyl-phenyl)-acetamide; hydrochloride] | 0.13 µM | 0.1 µM | 110% | > 5 µM | > 5 µM | > 5 µM |  | 
CC(=O)c1ccc(NC(=O)CN2CCC(n3c(=O)[nH]c4ccccc43)CC2)cc1 [Compound 354, N-(4-Acetyl-phenyl)-2-[4-(2-oxo-2,3-dihydro-benzoimidazol-1-yl)-piperidin-1-yl]-acetamide, reference compound] | 0.143 µM | 0.136 µM | 98% | > 5 µM | > 5 µM | > 5 µM |  | 
O=C(CN1CCCC1C(O)(c1ccccc1)c1ccccc1)Nc1ccc(C2CCCCC2)cc1 (stereo not drawn) [Compound 296, N-(4-Cyclohexyl-phenyl)-2-[2-(hydroxy-diphenyl-methyl)-pyrrolidin-1-yl]-acetamide; compound with oxalic acid] | 0.048 µM | 0.043 µM | 98% | > 5 µM | > 5 µM | > 5 µM |  | 
CCc1cc(Br)c(NC(=O)CN2CCC(n3c(=O)[nH]c4ccccc43)CC2)c(Br)c1 [Compound 330, N-(2,6-Dibromo-4-ethyl-phenyl)-2-[4-(2-oxo-2,3-dihydrobenzoimidazol-1-yl)-piperidin-1-yl]-acetamide, reference compound] | 0.44 µM | 0.26 µM | 99% | > 5 µM | > 5 µM | > 5 µM |  | 

The remaining compounds from weak to strong by IC50 [1, 7], led by results:

IC50 [1, 7] | IC50 [2, 8] | activity at 10 µM [3] | IC50 [4] | IC50 [5] | IC50 [6] | Structure (SMILES) | IC50 ([1]; hNPY5 IC50, [125I]PYY) | IC50 ([2]; rNPY5 IC50, [125I]PYY)
0.259 µM | 0.271 µM | 105% | > 5 µM | > 5 µM | > 5 µM | O=C(CN1CCC(n2c(=O)[nH]c3ccccc32)CC1)Nc1ccc(C(F)(F)F)cc1 [Compound 356, 2-[4-(2-Oxo-2,3-dihydro-benzoimidazol-1-yl)-piperidin-1-yl]-N-(4-trifluoromethyl-phenyl)-acetamide, reference compound] |  | 
0.053 µM | 0.0628 µM | 90% | > 5 µM | > 5 µM | > 5 µM | O=C(CN1CCC(n2c(=O)[nH]c3ccccc32)CC1)Nc1ccc(Oc2ccccc2)cc1 [Compound 352, 2-[4-(2-Oxo-2,3-dihydro-benzoimidazol-1-yl)-piperidin-1-yl]-N-(4-phenoxy-phenyl)-acetamide, reference compound] |  | 
